Legend:
Type in all cases: in vivo
[1] = system: barnyardgrass (Echinochloa crus-galli); assay: Test A preemergence soil spray, visual injury rating 0-100; settings: 10 days
Method in brief: (§1)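 Plants in a loam and sand soil blend were treated with each test chemical, in a non-phytotoxic solvent system including surfactant, either sprayed on seeded soil before emergence or applied after emergence at the one- to two-leaf stage. Ten days later in the greenhouse, plants were compared with untreated controls and visually rated from 0 (no effect) to 100 (complete control).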

[2] = system: blackgrass (Alopecurus myosuroides); assay: as above; settings: 10 days
Method in brief: as §1

[3] = system: corn (Zea mays); assay: as above; settings: 10 days
Method in brief: as §1

[4] = system: green foxtail (Setaria viridis); assay: as above; settings: 10 days
Method in brief: as §1

[5] = system: kochia (Bassia scoparia); assay: as above; settings: 10 days
Method in brief: as §1

[6] = system: oat, wild (wild oat, Avena fatua); assay: as above; settings: 10 days
Method in brief: as §1

[7] = system: palmer (palmer amaranth, palmer pigweed, Amaranthus palmeri); assay: as above; settings: 10 days
Method in brief: as §1

[8] = system: ragweed (common ragweed, Ambrosia artemisiifolia); assay: as above; settings: 10 days
Method in brief: as §1

[9] = system: ryegrass, Italian (italian ryegrass, Lolium multiflorum); assay: as above; settings: 10 days
Method in brief: as §1

[10] = system: soybean (Glycine max); assay: as above; settings: 10 days
Method in brief: as §1

[11] = system: wheat (Triticum aestivum); assay: as above; settings: 10 days
Method in brief: as §1

[12] = system: barnyardgrass (Echinochloa crus-galli); assay: Test A postemergence application, visual injury rating 0-100
Method in brief: as §1

[13] = system: blackgrass (Alopecurus myosuroides); assay: as above
Method in brief: as §1

[14] = system: corn (Zea mays); assay: as above
Method in brief: as §1

[15] = system: galium (catchweed bedstraw, Galium aparine); assay: as above
Method in brief: as §1

[16] = system: green foxtail (Setaria viridis); assay: as above
Method in brief: as §1

[17] = system: horseweed (Erigeron canadensis); assay: as above
Method in brief: as §1

[18] = system: kochia (Bassia scoparia); assay: as above
Method in brief: as §1

[19] = system: oat, wild (wild oat, Avena fatua); assay: as above
Method in brief: as §1

[20] = system: palmer (palmer amaranth, palmer pigweed, Amaranthus palmeri); assay: as above
Method in brief: as §1

[21] = system: ragweed (common ragweed, Ambrosia artemisiifolia); assay: as above
Method in brief: as §1

[22] = system: ryegrass, Italian (italian ryegrass, Lolium multiflorum); assay: as above
Method in brief: as §1

[23] = system: soybean (Glycine max); assay: as above
Method in brief: as §1

[24] = system: wheat (Triticum aestivum); assay: as above
Method in brief: as §1

[25] = system: barnyardgrass (Echinochloa crusgalli); assay: Test B flooded paddy test, visual plant response rating 0-100; settings: 250 g ai/ha, Flood, applied to paddy water, evaluated after 13 days
Method in brief: (§2)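 Paddy-water application: test compounds went directly into water flooded 3 cm above the soil surface, with plants at 2 leaves. After a 13-day greenhouse period, responses were judged by eye relative to controls; a dash marks an untested entry.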

[26] = system: ducksalad (Heteranthera limosa); assay: as above; settings: 250 g ai/ha, Flood, applied to paddy water, evaluated after 13 days
Method in brief: as §2

[27] = system: rice (Oryza sativa); assay: as above; settings: 250 g ai/ha, Flood, applied to paddy water, evaluated after 13 days
Method in brief: as §2

[28] = system: sedge, umbrella (small-flower umbrella sedge, Cyperus difformis); assay: as above; settings: 250 g ai/ha, Flood, applied to paddy water, evaluated after 13 days
Method in brief: as §2

[29] = 62 g ai/ha, 0 = no effect, 100 = complete control
[30] = 62 g ai/ha, postemergence, 10 days, 0 = no effect, 100 = complete control
[31] = Postemergence, 16 g ai/ha, greenhouse 10 days, 0 no effect, 100 complete control

With `CC1(C(=O)NC2CC=C(C(=O)NS(C)(=O)=O)C2)CN(c2cc(F)cc(F)c2)C(=O)O1` (racemic) [Compound 103] the “Barnyardgrass plant response rating” value ([1]; 16 g ai/ha, 0 to 100 scale) was 0, the “Barnyardgrass plant response rating (0-100)” value [1, 29] was 10 and the “Blackgrass plant response rating” value ([2]; 16 g ai/ha, 0 to 100 scale) was 0. The “Blackgrass plant response rating (0-100)” value [2, 29] was 0, the “Corn plant response rating” value ([3]; 16 g ai/ha, 0 to 100 scale) was 0 and the “Corn plant response rating (0-100)” value [3, 29] was 10. The “Foxtail, Green plant response rating” value ([4]; 16 g ai/ha, 0 to 100 scale) was 20, the “Foxtail, Green plant response rating (0-100)” value [4, 29] was 40 and the “Kochia plant response rating” value ([5]; 16 g ai/ha, 0 to 100 scale) was 0. The “Kochia plant response rating (0-100)” value [5, 29] was 50, the “Oat, Wild plant response rating” value ([6]; 16 g ai/ha, 0 to 100 scale) was 0 and the “Oat, Wild plant response rating (0-100)” value [6, 29] was 0. The “Pigweed, Palmer plant response rating” value ([7]; 16 g ai/ha, 0 to 100 scale) was 0, the “Pigweed, Palmer plant response rating (0-100)” value [7, 29] was 80 and the “Ragweed plant response rating” value ([8]; 16 g ai/ha, 0 to 100 scale) was 0. For the same compound, the “Ragweed plant response rating (0-100)” value [8, 29] was 0, the “Ryegrass, Italian plant response rating” value ([9]; 16 g ai/ha, 0 to 100 scale) was 0 and the “Ryegrass, Italian plant response rating (0-100)” value [9, 29] was 40. The “Soybean plant response rating” value ([10]; 16 g ai/ha, 0 to 100 scale) was 20, the “Soybean plant response rating (0-100)” value [10, 29] was 20 and the “Wheat plant response rating” value ([11]; 16 g ai/ha, 0 to 100 scale) was 0. For the same compound, the “Wheat plant response rating (0-100)” value [11, 29] was 60, the “Barnyardgrass plant response rating (0-100)” value [12, 30] was 100 and the “Barnyardgrass plant response rating (0 to 100 scale)” value [12, 31] was 50. For the same compound, the “Blackgrass plant response rating (0-100)” value [13, 30] was 40, the “Blackgrass plant response rating (0 to 100 scale)” value [13, 31] was 0 and the “Corn plant response rating (0-100)” value [14, 30] was 80. The “Corn plant response rating (0 to 100 scale)” value [14, 31] was 10, the “Galium plant response rating (0-100)” value [15, 30] was 60 and the “Galium plant response rating (0 to 100 scale)” value [15, 31] was 10. For the same compound, the “Foxtail, Green plant response rating (0-100)” value [16, 30] was 90, the “Foxtail, Green plant response rating (0 to 100 scale)” value [16, 31] was 0 and the “Horseweed plant response rating (0-100)” value [17, 30] was 0. For the same compound, the “Horseweed plant response rating (0 to 100 scale)” value [17, 31] was 0, the “Kochia plant response rating (0-100)” value [18, 30] was 80 and the “Kochia plant response rating (0 to 100 scale)” value [18, 31] was 20. The “Oat, Wild plant response rating (0-100)” value [19, 30] was 20, the “Oat, Wild plant response rating (0 to 100 scale)” value [19, 31] was 0 and the “Pigweed, Palmer plant response rating (0-100)” value [20, 30] was 70. The “Pigweed, Palmer plant response rating (0 to 100 scale)” value [20, 31] was 60, the “Ragweed plant response rating (0-100)” value [21, 30] was 30 and the “Ragweed plant response rating (0 to 100 scale)” value [21, 31] was 10. For the same compound, the “Ryegrass, Italian plant response rating (0-100)” value [22, 30] was 30, the “Ryegrass, Italian plant response rating (0 to 100 scale)” value [22, 31] was 0 and the “Soybean plant response rating (0-100)” value [23, 30] was 40. For the same compound, the “Soybean plant response rating (0 to 100 scale)” value [23, 31] was 10, the “Wheat plant response rating (0-100)” value [24, 30] was 70 and the “Wheat plant response rating (0 to 100 scale)” value [24, 31] was 20. For the same compound, the “Plant response rating, Barnyardgrass (0 to 100 scale, 0 is no effect and 100 is complete control)” value [25] was 0, the “Plant response rating, Ducksalad (0 to 100 scale, 0 is no effect and 100 is complete control)” value [26] was 0 and the “Plant response rating, Rice (0 to 100 scale, 0 is no effect and 100 is complete control)” value [27] was 0. The “Plant response rating, Sedge, Umbrella (0 to 100 scale, 0 is no effect and 100 is complete control)” value [28] was 0.

From patent US20260285850A1, “SUBSTITUTED OXAZOLIDINONES AND IMIDAZOLINONES AS HERBICIDES” (FMC CORPORATION, priority 2023, published 2026)
